Test results as given in patent US20260263442A1, “METHOD FOR TREATING L-DOPA-INDUCED DYSKINESIA USING BEFIRADOL” (Neurolixis, Inc., priority 2023, published 2026).
Values joined by “and” are separate entries in the source; they are usually repeats but may differ in a detail not shown here. Equal values may be shown once. Read-outs that look alike come from different tables or passages of the source.

Experiments:
[1] = test system: pain in PD patients with LID; test: King's Parkinson's Disease Pain Scale (KPPS), Phase 2a study; assay type: in vivo, human
From the text: The KPPS is a rater-interview-based scale conducted with the patient and caregiver (if available). It is a 14-item scale covering 7 domains of pain: • Musculoskeletal pain • Chronic pain • Fluctuation-related pain • Nocturnal pain • Orofacial pain • Edema/swelling; discoloration • Radicular pain Each item is scored by severity (0-3; none to very severe) multiplied by frequency (0-4; never to all the time), for an item sub score of 0-12, resulting in a total score from 0 to 168. Ratings are based on the previous month, or in the case of this study, the intervening period since the previous clinic visit (about 3 weeks). Treatment effects would be analyzed as change from baseline for total score and for individual pain domains.

[2] = test system: overall PD symptoms in PD patients with LID; assay type: in vivo, human
From the text: The CGI-C is a clinician-oriented scale that assesses the total improvement in the patient's condition relative to the clinical global impression of severity (CGI-S) scale conducted at baseline. The CGI-C rates the patient's condition from 0 to 7, with a rating of 0 indicating “no assessment”, a rating of 1 indicating “very much better”, and a rating of 7 indicating “very much worse”.

[3] = test system: models of pain, forced swim test, spinal cord injury model; details: animal experiments; cited from earlier work
[4] = test system: overactive bladder in PD patients with LID; test: ICIQ Overactive Bladder Module (ICIQ-OAB), Phase 2a study; assay type: in vivo, human
From the text: The ICIQ-OAB provides a brief and robust measure to assess the impact of symptoms of overactive bladder on quality of life and outcome of treatment. It is a 4-item patient reported outcome covering 4 domains of bladder function: frequency, nocturia, urgency, and urge urinary incontinence. Each item is scored by frequency of 0-4, for a total score of 0-16. Ratings would be based on the previous month or since the last clinic visit. Efficacy would be assessed as change from the baseline total score.

[5] = test system: anxiety and depression in PD patients with LID; test: Hospital Anxiety Depression Scale (HADS), Phase 2a study; assay type: in vivo, human
From the text: The HADS is used to determine the levels of anxiety and depression that a person is experiencing. The questionnaire consists of 7 items related to anxiety and 7 related to depression. Each item on the questionnaires is scored from 0-3, which means that a person can score between 0 and 21 for either anxiety or depression.

[6] = test system: sleepiness in PD patients with LID; test: Epworth Sleepiness Scale (ESS), Phase 2a study; assay type: in vivo, human
From the text: The ESS is a self-administered questionnaire with 8 questions. Respondents are asked to rate, on a 4-point scale (0-3), their usual chances of dozing off or falling asleep while engaged in 8 different activities. The ESS score (the sum of 8 item scores, 0-3) can range from 0 to 24. Ratings are based on the previous month, or in the case of this study, the intervening period since the previous clinic visit (about 3 weeks).

[7] = test system: 6-OH-DA lesioned rats; details: cited from earlier work
[8] = in vivo; cited from earlier work
[9] = test system: Parkinson's disease symptoms in PD patients with LID; test: Unified Parkinson's Disease Rating Scale (UPDRS), Phase 2a study; details: for UPDRS Part 3, Baseline / UPDRS Part 3, Δ / UPDRS Total, Baseline / UPDRS Total, Δ: on NLX-112
Experimental: Because the level of dyskinesia experienced by patients can vary over time, they were given 150% (i.e., 1.5×) of their regular L-DOPA dose (up to a maximum of 250 mg) as a challenge 30 min before each dyskinesia assessment to improve comparability between patients and between visits. […] PD symptoms were assessed by Unified Parkinson's Disease Rating Scale (UPDRS) 30-90 min after the 150% L-DOPA challenge (i.e., when the patient was ON). Changes from baseline are shown for total score (i.e., Parts 1 to 4) and individual scores for each Part, 1, 2, 3 and 4.
Patients were challenged with 150% of their standard L-DOPA dose (maximum L-DOPA dose 250 mg) 30 minutes prior to the first UDysRS assessment. • Change from baseline in UDysRS total score at Day 28 and Day 42, after a 150% L-DOPA dose challenge. • Change from baseline in total objective score (Parts III, IV) of the UDysRS at Day 28 and Day 42, after a 150% L-DOPA dose challenge. • Change from baseline in ON Time Without Troublesome Dyskinesia (ON Without Dyskinesia plus ON With Non-troublesome Dyskinesia) based on a PD Home Dyskinesia Diary. • Change from baseline in Unified Parkinson's Disease Rating Scale (UPDRS) scores (Part III, motor examination). • Change from baseline in UPDRS combined scores (Parts I, II, III and IV). • Clinical Global Impression of Change (CGI-C) in overall PD symptoms • Change from baseline in dyskinesia scores measured by the Kinesia 360 (Great Lakes Neurotechnologies, Inc) wearable dyskinesia assessment system.
The UPDRS consists of 4 parts: • Part I assesses non-motor experiences of daily living, such as cognitive impairment and depressed mood. • Part II assesses motor experiences of daily living, such as speech and eating tasks. • Part III is a motor examination conducted by the clinician, including assessments of symptoms such as rigidity and tremor. • Part IV is an assessment of motor complications, such as time spent with dyskinesia and functional impact of dyskinesias.
Each item in the UPDRS is scored from 0 to 4, and the individual scores are summed to give a total score that indicates the severity of the disease, with a score of 0 indicating no disability and a score of 199 being the most severe (indicating total disability).
Change from baseline in UPDRS combined scores (Parts I, II, III and IV) to Visit 6 (Day 28) and Visit 7 (Day 42) respectively would be summarized using descriptive statistics. […] The same analysis would be done for UPDRS Part III only.

[10] = Baseline, Per Protocol Set, n = 15
[11] = change from baseline at day 28 (end of up-titration period), Per Protocol Set, n = 15
[12] = change from baseline at day 42 (end of stable dosing period), Per Protocol Set, n = 15
[13] = Baseline, mean (SD), per-protocol set n = 15
[14] = Day 28, mean (SD), per-protocol set n = 15
[15] = Day 42, mean (SD), per-protocol set n = 15
[16] = Patient A, amantadine treatment 1 year
[17] = Patient B, amantadine treatment 2 years
[18] = Patient C, amantadine treatment 7 years
[19] = Patient D, amantadine treatment 11 years
[20] = Patient E, amantadine treatment 6 years
[21] = Visit 2 Baseline, Per protocol analysis set, n 15
[22] = Visit 6 Clinic Efficacy Visit (Day 28), Per protocol analysis set, n 15
[23] = Visit 6 Clinic Efficacy Visit, Full analysis set, n=15
[24] = Visit 7 Clinic Efficacy Visit (Day 42), Per protocol analysis set, n 15
[25] = Visit 7 Clinic Efficacy Visit, Full analysis set, n=15
[26] = Visit 9 Follow-up Clinic Visit, Full analysis set, n=15
[27] = Visit 9 Follow-up Clinic Visit, Per protocol analysis set, n 15

## Cc1ccc(CNCC2(F)CCN(C(=O)c3ccc(F)c(Cl)c3)CC2)nc1 [NLX-112]
[1]; [10]
  KPPS, Baseline, mean (S.D.): 16.0 (9.9)
[1]; Day 42
  KPPS total score, change from baseline: statistically significant improvement
[1]; change from baseline at day 28 (end of up-titration period), Per Protocol Set, n = 15, **p < 0.01 vs baseline (LMM)
  KPPS, Δ D28, mean (S.D.): −4.6 (7.5)**
[1]; change from baseline at day 42 (end of stable dosing period), Per Protocol Set, n = 15, **p < 0.01 vs baseline (LMM)
  KPPS, Δ D42, mean (S.D.): −4.8 (7.8)**
[2]; day 28
  CGI-C, proportion of patients improved (minimally, much or very much improved): 33%
[2]; day 42
  CGI-C, proportion of patients improved (minimally, much or very much improved): 53%
[3]
  Activity in models of pain, forced swim test and urinary function in a spinal cord injury model: pronounced activity
[4]; Days 28 or 42
  Incontinence (ICIQ-OAB), effect: no consistent statistically significant effect
[4]; [11]
  ICIQ-OAB, Δ D28, mean (S.D.): 0.7 (6.5)
[4]; [12]
  ICIQ-OAB, Δ D42, mean (S.D.): −0.8 (8.02)
[5]; [10]
  HADS (Anxiety), Baseline, mean (S.D.): 4.5 (2.5)
  HADS (Depression), Baseline, mean (S.D.): 3.7 (2.7)
[5]; Days 28 or 42
  Anxiety and depression (HADS), effect: no consistent statistically significant effect
[5]; [11]
  HADS (Anxiety), Δ D28, mean (S.D.): −0.5 (2.5)
  HADS (Depression), Δ D28, mean (S.D.): −0.4 (1.7)
[5]; [12]
  HADS (Depression), Δ D42, mean (S.D.): −0.6 (1.9)
[6]; [10]
  ESS, Baseline, mean (S.D.): 8.3 (5.2)
[6]; Days 28 or 42
  Sleepiness (ESS), effect: no consistent statistically significant effect
[6]; [11]
  ESS, Δ D28, mean (S.D.): −1.1 (3.3)
[6]; [12]
  ESS, Δ D42, mean (S.D.): −0.9 (3.4)
[7]; 6-OH-DA lesioned rats
  Rotation behavior: increases rotation behavior
[7]; parkinsonian rat model of LID
  Dopamine surge following L-DOPA administration: blunted
  Striatal 5-HT release: inhibited striatal 5-HT release
[7]; rat, 2-week treatment period
  Antidyskinetic efficacy against L-DOPA-induced dyskinesia on chronic administration: did maintain its antidyskinetic efficacy
[8]
  Blood concentrations that could be associated with side effects, such as dizziness: higher than 15 ng/ml
[9]; [13]
  UPDRS Part 1: 1.0 (1.0)
  UPDRS Part 4: 8.0 (2.0)
[9]; [14]
  UPDRS Part 3, change from baseline: −3.7 points and −3.7 (4.7)**# points
  UPDRS Total (Parts 1 to 4), change from baseline: −6.5 points and −6.5 (7.6)*** points
[9]; [15]
  UPDRS Part 3, change from baseline: −3.7 points and −3.7 (4.6)** points
  UPDRS Total (Parts 1 to 4), change from baseline: −5.7 points and −5.7 (6.0)** points
[9]; [16]
  UPDRS Part 3, Baseline: 8
  UPDRS Part 3, Δ: −4
  UPDRS Total, Baseline: 22
  UPDRS Total, Δ: −5
[9]; [17]
  UPDRS Part 3, Baseline: 22
  UPDRS Part 3, Δ: −9
  UPDRS Total, Baseline: 44
  UPDRS Total, Δ: −15
[9]; [18]
  UPDRS Part 3, Baseline: 28
  UPDRS Part 3, Δ: −13
  UPDRS Total, Baseline: 51
  UPDRS Total, Δ: −11
[9]; [19]
  UPDRS Part 3, Baseline: 11
  UPDRS Part 3, Δ: +3
  UPDRS Total, Baseline: 26
  UPDRS Total, Δ: −5
[9]; [20]
  UPDRS Part 3, Baseline: 15
  UPDRS Part 3, Δ: +2
  UPDRS Total, Baseline: 30
  UPDRS Total, Δ: +3
[9]; Visit 2 Baseline, Full analysis set, n=18
  UPDRS Part 3 Motor Total, collected value, Median (Min, Max): 16.0 (3, 39)
[9]; [21]
  UPDRS Part 3 Motor Total, collected value, Median (Min, Max): 17.0 (3, 39)
  UPDRS Total Score, Collected value, Mean (SD): 37.0 (13.3)
  UPDRS Total Score, Collected value, Median (Min, Max): 36.0 (17, 66)
[9]; [22]
  UPDRS Part 3 Motor Total, absolute change from baseline, Mean (SD): −3.7 (4.7)
  UPDRS Part 3 Motor Total, absolute change from baseline, Median (Min, Max): −4.0 (−12, 5)
  UPDRS Part 3 Motor Total, collected value, Median (Min, Max): 14.0 (2, 30)
  UPDRS Total Score, Absolute change from baseline, Mean (SD): −6.5 (7.6)
  UPDRS Total Score, Absolute change from baseline, Median (Min, Max): −5.0 (−23, 6)
  UPDRS Total Score, Collected value, Median (Min, Max): 29.0 (13, 54)
[9]; [23]
  UPDRS Part 3 Motor Total, absolute change from baseline, Mean (SD): −3.7 (4.7)
  UPDRS Part 3 Motor Total, absolute change from baseline, Median (Min, Max): −4.0 (−12, 5)
  UPDRS Part 3 Motor Total, collected value, Median (Min, Max): 14.0 (2, 30)
  UPDRS Total Score (all Parts), absolute change from baseline, Mean (SD): −6.5 (7.6)
  UPDRS Total Score (all Parts), absolute change from baseline, Median (Min, Max): −5.0 (−23, 6)
  UPDRS Total Score (all Parts), collected value, Median (Min, Max): 29.0 (13, 54)
[9]; [24]
  UPDRS Part 3 Motor Total, absolute change from baseline, Mean (SD): −3.7 (4.6)
  UPDRS Part 3 Motor Total, absolute change from baseline, Median (Min, Max): −4.0 (−13, 3)
  UPDRS Part 3 Motor Total, collected value, Median (Min, Max): 14.0 (1, 35)
  UPDRS Total Score, Absolute change from baseline, Mean (SD): −5.7 (6.0)
  UPDRS Total Score, Absolute change from baseline, Median (Min, Max): −5.0 (−15, 4)
  UPDRS Total Score, Collected value, Median (Min, Max): 30.0 (15, 63)
[9]; [25]
  UPDRS Part 3 Motor Total, absolute change from baseline, Mean (SD): −3.7 (4.6)
  UPDRS Part 3 Motor Total, absolute change from baseline, Median (Min, Max): −4.0 (−13, 3)
  UPDRS Part 3 Motor Total, collected value, Median (Min, Max): 14.0 (1, 35)
  UPDRS Total Score (all Parts), absolute change from baseline, Mean (SD): −5.7 (6.0)
  UPDRS Total Score (all Parts), absolute change from baseline, Median (Min, Max): −5.0 (−15, 4)
  UPDRS Total Score (all Parts), collected value, Median (Min, Max): 30.0 (15, 63)
[9]; [26]
  UPDRS Part 3 Motor Total, absolute change from baseline, Mean (SD): −2.7 (5.5)
  UPDRS Part 3 Motor Total, absolute change from baseline, Median (Min, Max): −2.0 (−15, 4)
  UPDRS Part 3 Motor Total, collected value, Median (Min, Max): 13.0 (2, 32)
  UPDRS Total Score (all Parts), absolute change from baseline, Mean (SD): −4.4 (9.0)
  UPDRS Total Score (all Parts), absolute change from baseline, Median (Min, Max): −3.0 (−20, 7)
  UPDRS Total Score (all Parts), collected value, Median (Min, Max): 31.0 (15, 56)
[9]; [27]
  UPDRS Part 3 Motor Total, absolute change from baseline, Mean (SD): −2.7 (5.5)
  UPDRS Part 3 Motor Total, absolute change from baseline, Median (Min, Max): −2.0 (−15, 4)
  UPDRS Part 3 Motor Total, collected value, Median (Min, Max): 13.0 (2, 32)
  UPDRS Total Score, Absolute change from baseline, Mean (SD): −4.4 (9.0)
  UPDRS Total Score, Absolute change from baseline, Median (Min, Max): −3.0 (−20, 7)
  UPDRS Total Score, Collected value, Median (Min, Max): 31.0 (15, 56)
[9]; day 42
  Reduction in UPDRS Part 3 scores, more than placebo: 3.9 points
[9]; five patients also receiving amantadine
  Amantadine co-treated NLX-112 patients with decreases in UPDRS total score and UPDRS Part 3: three
[9]; in vivo
  Effect on the beneficial anti-parkinsonian effects of L-DOPA: did not worsen, and actually enhanced, the beneficial effects of L-DOPA
[9]; patients on NLX-112 and amantadine
  Amantadine co-treated NLX-112 patients with numerical reductions in PD symptoms (UPDRS): 4 of the 5
